Source: ChEMBL document CHEMBL5723587, “Data for DCP probe BI-113823” (2024)

What was measured:
[1] = target: cGMP-inhibited 3',5'-cyclic phosphodiesterase 3A (Homo sapiens) (UniProt Q14432); test: Inhibitor of PDE3A in the Eurofins Cerep SafetyScreen44 (BI) by HTRF-homogeneous time resolved fluoresce (Cerep_4072); details: Compound concentration 10.0 uM
[2] = target: Prostaglandin G/H synthase 2 (Homo sapiens) (UniProt P35354); test: Inhibitor of COX-2 in the Eurofins Cerep SafetyScreen44 (BI) by Fluorimetry (Cerep_4186); details: Compound concentration 10.0 uM
[3] = target: Endothelin-1 receptor (Homo sapiens) (UniProt P25101); test: ETA Eurofins-Cerep binding assay; set-up: ligand concentration 0.03 nM; details: Compound concentration 10.0 uM
[4] = target: Mu-type opioid receptor (Homo sapiens) (UniProt P35372); test: mu (MOP) Eurofins-Cerep binding assay; set-up: ligand concentration 0.5 nM; details: Compound concentration 10.0 uM
[5] = target: Alpha-2A adrenergic receptor (Homo sapiens) (UniProt P08913); test: Inhibitor of ALPHA2A/HU in the Eurofins Cerep SafetyScreen44 (BI) by Radioactive Assay (Cerep_13); details: Compound concentration 10.0 uM
[6] = target: Vasopressin V1a receptor (Homo sapiens) (UniProt P37288); test: V1a Eurofins-Cerep binding assay; set-up: ligand concentration 0.3 nM; details: Compound concentration 10.0 uM
[7] = target: Cannabinoid receptor 1 (Homo sapiens) (UniProt P21554); test: CB1 Eurofins-Cerep binding assay; details: Compound concentration 10.0 uM
[8] = target: Muscarinic acetylcholine receptor M3 (Homo sapiens) (UniProt P20309); test: M3 Eurofins-Cerep binding assay; set-up: ligand concentration 0.2 nM; details: Compound concentration 10.0 uM
[9] = target: Adenosine receptor A2a (Homo sapiens) (UniProt P29274); test: A2A Eurofins-Cerep binding assay; set-up: ligand concentration 6 nM; details: Compound concentration 10.0 uM
[10] = target: 5-hydroxytryptamine receptor 2B (Homo sapiens) (UniProt P41595); test: 5-HT2B Eurofins-Cerep binding assay; details: Compound concentration 10.0 uM
Rattus norvegicus [11] = species on record: Rattus norvegicus; test: Activity against BZD/CENTR/R in the Eurofins Cerep SafetyScreen44 (BI) by Radioactive Assay (Cerep_28); type: protein-complex assay; details: Compound concentration 10.0 uM
hERG (KCNH2) = hERG (KCNH2) (Homo sapiens, UniProt Q12809); test: Inhibitor of HERG_DOFETILIDE in the Eurofins Cerep SafetyScreen44 (BI) by Scintillation counting (Cerep_4094); set-up: scale not given: the % may be the effect or the level left; details: probe [3H]dofetilide, compound concentration 10 uM, read-out: % Ctrl
[12] = target: Cholecystokinin receptor type A (Homo sapiens) (UniProt P32238); test: CCK1 (CCKA) Eurofins-Cerep binding assay; set-up: ligand concentration 0.08 nM; details: Compound concentration 10.0 uM
[13] = target: Angiotensin-converting enzyme (Homo sapiens) (UniProt P12821); test: Activity against ACE(HU_AMTCH400) in the Eurofins Cerep SafetyScreen44 (BI) by Photometry (Cerep_3441); details: Compound concentration 10.0 uM
[14] = target: Cannabinoid receptor 2 (Homo sapiens) (UniProt P34972); test: Activity against CB2/PERIPH/H in the Eurofins Cerep SafetyScreen44 (BI) by Radioactive Assay (Cerep_37); details: Compound concentration 10.0 uM
[15] = target: Prostaglandin G/H synthase 1 (Homo sapiens) (UniProt P23219); test: Inhibitor of COX-1 in the Eurofins Cerep SafetyScreen44 (BI) by Fluorimetry (Cerep_4173); details: Compound concentration 10.0 uM
[16] = target: 5-hydroxytryptamine receptor 1A (Homo sapiens) (UniProt P08908); test: 5-HT1A Eurofins-Cerep binding assay; set-up: ligand concentration 0.5 nM; details: Compound concentration 10.0 uM
[17] = target: Delta-type opioid receptor (Homo sapiens) (UniProt P41143); test: delta (DOP) Eurofins-Cerep binding assay; set-up: ligand concentration 0.5 nM; details: Compound concentration 10.0 uM
Rattus norvegicus [18] = species on record: Rattus norvegicus; test: KV channel Eurofins-Cerep binding assay; set-up: ligand concentration 0.01 nM; details: Compound concentration 10.0 uM
[19] = target: 5-hydroxytryptamine receptor 1B (Homo sapiens) (UniProt P28222); test: 5-HT1B Eurofins-Cerep binding assay; set-up: ligand concentration 1 nM; details: Compound concentration 10.0 uM
[20] = target: Glutamate NMDA receptor (Rattus norvegicus) (UniProt P35439+Q00959+Q00960+Q00961+Q62645+Q8VHN2+Q9R1M7); test: Inhibitor of NMDA/R in the Eurofins Cerep SafetyScreen44 (BI) by Radioactive Assay (Cerep_66); type: protein-complex assay; details: Compound concentration 10.0 uM
[21] = target: Sodium-dependent noradrenaline transporter (Homo sapiens) (UniProt P23975); test: norepinephrine transporter Eurofins-Cerep binding assay; set-up: ligand concentration 1 nM; details: Compound concentration 10.0 uM
[22] = target: Sodium-dependent dopamine transporter (Homo sapiens) (UniProt Q01959); test: dopamine transporter Eurofins-Cerep binding assay; details: Compound concentration 10.0 uM
B1 bradykinin receptor [23] = target: T1, B1 bradykinin receptor (Homo sapiens, UniProt P46663); test: Radioligand binding assay (displacement of kallidin, hBDKRB1 ) at 10 µM ( Non-specific binding is estimated in the presence of 10 µM Des-Arg9- (Leu8)-Bradykinin. Membranes are filtered and washed, the filters are then counted to determine [3H]Kallidin[des-Arg10, Leu9] specifically bound.); set-up: compound concentration 10 uM
T1 sequence (P46663 whole entry): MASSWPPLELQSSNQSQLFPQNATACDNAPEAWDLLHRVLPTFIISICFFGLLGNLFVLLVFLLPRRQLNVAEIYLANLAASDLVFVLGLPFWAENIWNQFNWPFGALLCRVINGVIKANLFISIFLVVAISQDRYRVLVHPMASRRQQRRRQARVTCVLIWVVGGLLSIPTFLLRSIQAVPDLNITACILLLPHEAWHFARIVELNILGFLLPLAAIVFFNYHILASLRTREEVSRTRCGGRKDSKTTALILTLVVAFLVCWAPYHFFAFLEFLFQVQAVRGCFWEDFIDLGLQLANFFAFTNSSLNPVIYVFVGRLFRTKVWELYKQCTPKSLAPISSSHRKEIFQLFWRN

[24] = target: Androgen receptor (Homo sapiens) (UniProt P10275); details: Compound concentration 10.0 uM
Description: Activity against ANDROGEN/H in the Eurofins Cerep SafetyScreen44 (BI) by Radioactive Assay (Cerep_933)

[25] = target: Alpha-1A adrenergic receptor (Homo sapiens) (UniProt P35348); test: Agonist activity in the Eurofins Cerep SafetyScreen44 (BI) against ALPHA1AH_ANTAG by Scintillation counting (Cerep_2338); details: Compound concentration 10.0 uM
[26] = target: Muscarinic acetylcholine receptor M1 (Homo sapiens) (UniProt P11229); test: M1 Eurofins-Cerep binding assay; set-up: ligand concentration 2 nM; details: Compound concentration 10.0 uM
[27] = target: Histamine H2 receptor (Homo sapiens) (UniProt P25021); test: H2 Eurofins-Cerep binding assay; set-up: ligand concentration 0.075 nM; details: Compound concentration 10.0 uM
[28] = target: L-type calcium channel (dihydropyridine site), Cav1.2 alpha-1C (Rattus norvegicus, UniProt P22002); test: Inhibitor of CA+/DHPSI/R in the Eurofins Cerep SafetyScreen44 (BI) by Radioactive Assay (Cerep_161); type: protein assay; set-up: scale not given: the % may be the effect or the level left; details: rat brain, probe [3H](+)PN200-110, compound concentration 10 uM, read-out: % Ctrl
[29] = target: D(2) dopamine receptor (Homo sapiens) (UniProt P14416); test: Agonist activity in the Eurofins Cerep SafetyScreen44 (BI) against D2SH_AGON by Scintillation counting (Cerep_1322); details: Compound concentration 10.0 uM
B1 bradykinin receptor [30] = target: T1, B1 bradykinin receptor; test: Measurement of intracellular calcium in HEK-cells expressing hBDKRB1 at up to 1 µM ( The compound antagonizes the effects of the specific B1 agonist [Lys-des-Arg9 ]-Bradykinin (10 nM) in a concentration-dependent manner.); type: functional, cell-based; set-up: compound concentration < 1 uM
[31] = target: 5-hydroxytryptamine receptor 2A (Homo sapiens) (UniProt P28223); test: Agonist activity in the Eurofins Cerep SafetyScreen44 (BI) against 5HT2AH_AGON by Scintillation counting (Cerep_471); details: Compound concentration 10.0 uM
[32] = target: Glucocorticoid receptor (Homo sapiens) (UniProt P04150); test: GR Eurofins-Cerep binding assay; details: Compound concentration 10.0 uM
[33] = target: Beta-1 adrenergic receptor (Homo sapiens) (UniProt P08588); test: beta 1 Eurofins-Cerep binding assay; set-up: ligand concentration 0.3 nM; details: Compound concentration 10.0 uM
[34] = target: Beta-2 adrenergic receptor (Homo sapiens) (UniProt P07550); test: beta 2 Eurofins-Cerep binding assay; details: Compound concentration 10.0 uM
Homo sapiens = species on record: Homo sapiens; test: Agonist activity in the Eurofins Cerep SafetyScreen44 (BI) against N_NEURO_A4B2 by Radioligand Binding (Cerep_3029); type: protein-complex assay; details: Compound concentration 10.0 uM
[35] = target: Sodium-dependent serotonin transporter (Homo sapiens) (UniProt P31645); test: 5-HT transporter Eurofins-Cerep binding assay; set-up: ligand concentration 2 nM; details: Compound concentration 10.0 uM
[36] = target: MAO-A (amine oxidase [flavin-containing] A) (Homo sapiens, UniProt P21397); test: Agonist activity in the Eurofins Cerep SafetyScreen44 (BI) against MAO-A_ANTAG by Scintillation counting (Cerep_443); set-up: scale not given: the % may be the effect or the level left; details: rat; compound concentration 10 uM; target entry is the homologue from another species; read-out: % Ctrl
[37] = target: Tyrosine-protein kinase Lck (Homo sapiens) (UniProt P06239); test: Inhibitor of LCK_CE in the Eurofins Cerep SafetyScreen44 (BI) by lanthanide chelation excitation (Cerep_2906); details: Compound concentration 10.0 uM
[38] = target: Histamine H1 receptor (Homo sapiens) (UniProt P35367); test: H1 Eurofins-Cerep binding assay; set-up: ligand concentration 1 nM; details: Compound concentration 10.0 uM
[39] = target: Kappa-type opioid receptor (Homo sapiens) (UniProt P41145); test: kappa (KOP) Eurofins-Cerep binding assay; details: Compound concentration 10.0 uM
[40] = target: 3',5'-cyclic-AMP phosphodiesterase 4D (Homo sapiens) (UniProt Q08499); test: Inhibitor of PDE4D2 in the Eurofins Cerep SafetyScreen44 (BI) by Scintillation counting (Cerep_4077); details: Compound concentration 10.0 uM
[41] = target: Muscarinic acetylcholine receptor M2 (Homo sapiens) (UniProt P08172); test: M2 Eurofins-Cerep binding assay; set-up: ligand concentration 2 nM; details: Compound concentration 10.0 uM
[42] = target: D(1A) dopamine receptor (Homo sapiens) (UniProt P21728); test: D1 Eurofins-Cerep binding assay; set-up: ligand concentration 0.3 nM; details: Compound concentration 10.0 uM
[43] = target: 5-hydroxytryptamine receptor 3A (Homo sapiens) (UniProt P46098); test: 5-HT3 Eurofins-Cerep binding assay; set-up: ligand concentration 0.5 nM; details: Compound concentration 10.0 uM

Sequence of Glucocorticoid receptor (Homo sapiens) (P04150 whole entry): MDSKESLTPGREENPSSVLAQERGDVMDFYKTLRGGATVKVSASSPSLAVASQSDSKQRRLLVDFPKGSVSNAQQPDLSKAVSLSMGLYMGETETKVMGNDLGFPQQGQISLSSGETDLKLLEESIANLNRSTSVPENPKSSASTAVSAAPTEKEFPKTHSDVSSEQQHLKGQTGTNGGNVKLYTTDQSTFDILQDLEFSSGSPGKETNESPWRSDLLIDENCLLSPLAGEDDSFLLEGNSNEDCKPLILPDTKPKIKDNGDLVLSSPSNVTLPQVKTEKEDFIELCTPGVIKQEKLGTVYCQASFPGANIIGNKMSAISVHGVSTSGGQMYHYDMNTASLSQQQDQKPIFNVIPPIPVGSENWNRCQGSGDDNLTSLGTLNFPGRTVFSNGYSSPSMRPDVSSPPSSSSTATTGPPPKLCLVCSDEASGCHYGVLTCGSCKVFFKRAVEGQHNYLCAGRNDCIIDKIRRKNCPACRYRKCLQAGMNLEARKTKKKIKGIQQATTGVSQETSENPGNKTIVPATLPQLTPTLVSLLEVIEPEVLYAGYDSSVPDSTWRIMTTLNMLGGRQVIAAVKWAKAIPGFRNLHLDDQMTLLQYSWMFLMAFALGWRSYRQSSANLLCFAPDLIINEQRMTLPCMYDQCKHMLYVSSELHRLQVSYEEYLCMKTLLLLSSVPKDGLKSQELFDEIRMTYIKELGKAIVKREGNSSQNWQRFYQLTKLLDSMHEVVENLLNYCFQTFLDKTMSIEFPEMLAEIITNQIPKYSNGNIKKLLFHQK
Sequence of Kappa-type opioid receptor (Homo sapiens) (P41145 whole entry): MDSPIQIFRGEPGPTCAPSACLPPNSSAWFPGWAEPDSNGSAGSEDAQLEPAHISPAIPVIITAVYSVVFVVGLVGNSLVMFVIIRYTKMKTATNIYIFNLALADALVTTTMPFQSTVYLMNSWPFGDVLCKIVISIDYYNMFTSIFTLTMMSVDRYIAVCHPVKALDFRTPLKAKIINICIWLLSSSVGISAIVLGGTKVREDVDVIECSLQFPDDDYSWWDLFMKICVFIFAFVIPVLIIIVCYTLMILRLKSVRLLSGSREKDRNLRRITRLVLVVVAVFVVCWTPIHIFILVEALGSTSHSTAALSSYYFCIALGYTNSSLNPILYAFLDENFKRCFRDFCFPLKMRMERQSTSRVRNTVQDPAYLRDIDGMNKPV
Sequence of hERG (KCNH2) (Q12809 whole entry): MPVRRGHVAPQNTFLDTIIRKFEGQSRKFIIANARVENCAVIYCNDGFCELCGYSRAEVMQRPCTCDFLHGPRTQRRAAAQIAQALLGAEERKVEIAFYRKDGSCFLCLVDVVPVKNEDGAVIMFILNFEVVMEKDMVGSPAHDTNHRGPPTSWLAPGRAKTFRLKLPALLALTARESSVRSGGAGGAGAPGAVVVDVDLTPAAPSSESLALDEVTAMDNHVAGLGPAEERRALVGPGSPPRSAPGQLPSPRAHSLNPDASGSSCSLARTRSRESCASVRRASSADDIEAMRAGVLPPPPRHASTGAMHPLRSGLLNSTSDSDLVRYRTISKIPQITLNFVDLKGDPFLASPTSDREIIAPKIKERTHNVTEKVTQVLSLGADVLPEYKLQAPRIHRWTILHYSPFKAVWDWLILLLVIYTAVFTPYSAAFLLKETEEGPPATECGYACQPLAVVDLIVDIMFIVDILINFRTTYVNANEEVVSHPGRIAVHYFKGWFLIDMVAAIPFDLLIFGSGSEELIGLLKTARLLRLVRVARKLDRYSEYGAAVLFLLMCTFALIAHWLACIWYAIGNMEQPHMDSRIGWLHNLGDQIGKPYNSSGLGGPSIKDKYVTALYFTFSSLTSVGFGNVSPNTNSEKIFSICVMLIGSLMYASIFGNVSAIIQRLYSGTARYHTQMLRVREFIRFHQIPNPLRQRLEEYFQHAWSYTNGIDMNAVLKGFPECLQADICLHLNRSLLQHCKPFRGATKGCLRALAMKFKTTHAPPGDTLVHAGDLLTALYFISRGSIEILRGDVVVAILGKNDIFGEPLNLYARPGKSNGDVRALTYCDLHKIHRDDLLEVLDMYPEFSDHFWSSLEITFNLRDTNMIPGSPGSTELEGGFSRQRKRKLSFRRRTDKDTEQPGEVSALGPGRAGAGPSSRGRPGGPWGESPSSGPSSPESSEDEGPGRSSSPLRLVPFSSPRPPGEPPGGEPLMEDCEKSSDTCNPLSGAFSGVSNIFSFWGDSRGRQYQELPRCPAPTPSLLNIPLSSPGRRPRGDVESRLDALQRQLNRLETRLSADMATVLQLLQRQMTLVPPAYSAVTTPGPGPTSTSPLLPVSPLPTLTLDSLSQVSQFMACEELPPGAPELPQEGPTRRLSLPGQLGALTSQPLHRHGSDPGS
Sequence of Cannabinoid receptor 1 (Homo sapiens) (P21554 whole entry): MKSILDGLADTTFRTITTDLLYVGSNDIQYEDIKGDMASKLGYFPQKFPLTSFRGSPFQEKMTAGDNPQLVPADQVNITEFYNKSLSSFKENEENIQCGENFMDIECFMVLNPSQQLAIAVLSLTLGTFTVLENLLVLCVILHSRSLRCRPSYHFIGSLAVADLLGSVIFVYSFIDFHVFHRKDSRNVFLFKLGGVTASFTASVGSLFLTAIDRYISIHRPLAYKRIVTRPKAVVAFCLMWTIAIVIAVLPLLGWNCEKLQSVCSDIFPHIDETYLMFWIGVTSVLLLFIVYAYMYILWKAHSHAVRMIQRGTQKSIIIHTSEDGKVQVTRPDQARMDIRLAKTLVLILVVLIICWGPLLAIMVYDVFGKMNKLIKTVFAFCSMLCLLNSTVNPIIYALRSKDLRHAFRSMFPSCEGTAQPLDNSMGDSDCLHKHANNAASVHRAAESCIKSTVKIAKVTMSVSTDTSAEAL
Sequence of D(2) dopamine receptor (Homo sapiens) (P14416 whole entry): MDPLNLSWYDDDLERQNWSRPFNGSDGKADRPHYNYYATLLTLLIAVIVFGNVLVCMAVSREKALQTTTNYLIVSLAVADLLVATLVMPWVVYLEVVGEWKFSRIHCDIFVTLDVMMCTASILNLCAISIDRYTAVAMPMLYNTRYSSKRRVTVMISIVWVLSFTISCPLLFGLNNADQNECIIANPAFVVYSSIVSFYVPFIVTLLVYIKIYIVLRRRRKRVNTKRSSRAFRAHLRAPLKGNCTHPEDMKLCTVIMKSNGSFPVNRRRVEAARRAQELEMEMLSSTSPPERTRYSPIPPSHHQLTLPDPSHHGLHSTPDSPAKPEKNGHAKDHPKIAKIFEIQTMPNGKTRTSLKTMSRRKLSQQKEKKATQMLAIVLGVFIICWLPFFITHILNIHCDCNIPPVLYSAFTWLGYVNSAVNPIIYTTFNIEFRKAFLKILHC
Sequence of Angiotensin-converting enzyme (Homo sapiens) (P12821 whole entry): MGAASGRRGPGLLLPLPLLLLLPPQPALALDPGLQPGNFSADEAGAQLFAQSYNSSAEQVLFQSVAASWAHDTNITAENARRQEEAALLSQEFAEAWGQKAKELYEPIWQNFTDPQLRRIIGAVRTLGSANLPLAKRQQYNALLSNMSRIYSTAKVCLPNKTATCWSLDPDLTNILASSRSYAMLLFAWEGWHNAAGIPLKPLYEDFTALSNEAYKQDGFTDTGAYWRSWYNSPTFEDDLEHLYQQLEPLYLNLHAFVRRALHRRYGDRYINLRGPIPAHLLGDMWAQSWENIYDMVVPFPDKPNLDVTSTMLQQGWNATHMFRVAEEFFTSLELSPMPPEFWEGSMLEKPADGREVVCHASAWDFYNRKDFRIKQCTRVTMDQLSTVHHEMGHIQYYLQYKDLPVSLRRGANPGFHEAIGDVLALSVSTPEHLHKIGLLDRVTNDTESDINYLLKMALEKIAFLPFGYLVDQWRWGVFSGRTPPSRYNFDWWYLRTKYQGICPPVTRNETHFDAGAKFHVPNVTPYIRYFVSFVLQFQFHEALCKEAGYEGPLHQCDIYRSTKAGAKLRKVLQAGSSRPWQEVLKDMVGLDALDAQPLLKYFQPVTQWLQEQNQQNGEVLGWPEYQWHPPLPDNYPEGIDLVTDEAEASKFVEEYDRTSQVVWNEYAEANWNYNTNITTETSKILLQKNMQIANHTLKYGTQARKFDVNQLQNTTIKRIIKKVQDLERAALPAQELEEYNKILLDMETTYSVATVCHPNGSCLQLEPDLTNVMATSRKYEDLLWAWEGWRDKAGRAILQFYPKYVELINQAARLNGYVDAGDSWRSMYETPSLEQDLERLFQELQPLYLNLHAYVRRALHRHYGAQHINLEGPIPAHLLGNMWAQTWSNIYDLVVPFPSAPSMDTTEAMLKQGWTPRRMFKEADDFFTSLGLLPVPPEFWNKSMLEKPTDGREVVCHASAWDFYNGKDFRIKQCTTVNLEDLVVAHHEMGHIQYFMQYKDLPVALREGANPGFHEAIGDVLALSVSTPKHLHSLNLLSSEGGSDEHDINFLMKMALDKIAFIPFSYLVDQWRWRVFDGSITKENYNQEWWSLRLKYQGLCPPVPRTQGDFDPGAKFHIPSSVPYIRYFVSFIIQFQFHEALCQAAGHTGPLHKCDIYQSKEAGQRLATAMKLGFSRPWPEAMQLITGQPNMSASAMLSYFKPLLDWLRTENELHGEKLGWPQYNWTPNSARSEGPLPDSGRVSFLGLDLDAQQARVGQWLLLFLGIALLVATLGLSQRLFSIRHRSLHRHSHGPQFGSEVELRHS
Sequence of Alpha-2A adrenergic receptor (Homo sapiens) (P08913 whole entry): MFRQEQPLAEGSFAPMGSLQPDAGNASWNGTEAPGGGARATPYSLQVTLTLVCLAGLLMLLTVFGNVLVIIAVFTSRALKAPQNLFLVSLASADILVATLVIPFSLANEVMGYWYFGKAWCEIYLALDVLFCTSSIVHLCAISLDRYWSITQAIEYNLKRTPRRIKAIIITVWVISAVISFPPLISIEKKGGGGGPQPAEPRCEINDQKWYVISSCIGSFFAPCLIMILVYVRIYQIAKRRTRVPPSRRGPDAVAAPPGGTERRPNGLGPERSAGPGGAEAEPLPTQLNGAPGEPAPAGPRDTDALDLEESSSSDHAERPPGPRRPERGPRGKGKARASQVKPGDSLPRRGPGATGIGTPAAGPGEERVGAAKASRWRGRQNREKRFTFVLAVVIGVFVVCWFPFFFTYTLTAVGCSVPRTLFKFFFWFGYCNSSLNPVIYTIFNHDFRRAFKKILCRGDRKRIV

SMILES: COc1cc(C)c(S(=O)(=O)N(C)CCC(=O)N[C@H]2CC[C@@H](N3CCC4CN(C)CC4C3)CC2)c(C)c1 (stereo not given in full)
- residual activity [1]: 105%
- residual activity [2]: 98%
- residual activity [3]: 109%
- residual activity [4]: 96%
- residual activity [5]: 90%
- residual activity [6]: 87%
- residual activity [7]: 137%
- residual activity [8]: 92%
- residual activity [9]: 124%
- residual activity [10]: 81%
- residual activity (Rattus norvegicus [11]): 105%
- activity at 10 µM (hERG (KCNH2)): 63% (not active)
- residual activity [12]: 85%
- residual activity [13]: 97%
- residual activity [14]: 106%
- residual activity [15]: 85%
- residual activity [16]: 99%
- residual activity [17]: 87%
- residual activity (Rattus norvegicus [18]): 98%
- residual activity [19]: 92%
- residual activity [20]: 112%
- residual activity [21]: 93%
- residual activity [22]: 98%
- Ki (B1 bradykinin receptor [23]): 431 nM (not active)
- residual activity [24]: 90%
- residual activity [25]: 91%
- residual activity [26]: 89%
- residual activity [27]: 113%
- activity at 10 µM [28]: 120% (not active)
- residual activity [29]: 97%
- IC50 (B1 bradykinin receptor [30]): 699 nM (not active)
- residual activity [31]: 108%
- residual activity [32]: 102%
- residual activity [33]: 97%
- residual activity [34]: 101%
- residual activity (Homo sapiens): 98%
- residual activity [35]: 103%
- activity at 10 µM [36]: 106% (not active)
- residual activity [37]: 94%
- residual activity [38]: 104%
- residual activity [39]: 42%
- residual activity [40]: 104%
- residual activity [41]: 67%
- residual activity [42]: 94%
- residual activity [43]: 93%
